Reference: PubChem BioAssay (NCI)
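In this assay, cells in 96-well plates receive the compound at five concentrations for 48 hours. Endpoints are linearly interpolated between the surrounding concentrations. Abbreviation: GI50, concentration required for 50% inhibition of growth. TGI denotes the concentration required for complete inhibition of growth.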

Assays:
Test in all cases: NCI anticancer screen, dose series, 48 h
KM12 colon = test system: KM12 colon
NCI-H226 lung = test system: NCI-H226 lung
UO-31 renal = test system: UO-31 renal
SF-539 CNS = test system: SF-539 CNS
UACC-62 melanoma = test system: UACC-62 melanoma
MALME-3M melanoma = test system: MALME-3M melanoma
K-562 leukemia = test system: K-562 leukemia
BT-549 breast = test system: BT-549 breast
SF-295 CNS = test system: SF-295 CNS
LOX IMVI melanoma = test system: LOX IMVI melanoma

## CO[C@@H]1[C@H](N(C)C(=O)c2ccccc2)C[C@@H]2O[C@]1(C)n1c3ccccc3c3c4c(c5c6ccccc6n2c5c31)C(=O)NC4=O
KM12 colon
  GI50: 0.391 µM
  TGI: > 100 µM
NCI-H226 lung
  GI50: 0.303 µM
  TGI: > 100 µM
UO-31 renal
  GI50: 0.211 µM
  TGI: 1.46 µM
SF-539 CNS
  GI50: 1.08 µM
  TGI: 59.8 µM
UACC-62 melanoma
  GI50: 0.54 µM
  TGI: > 100 µM
MALME-3M melanoma
  GI50: 0.732 µM
  TGI: > 100 µM
K-562 leukemia
  GI50: 11.1 µM
  TGI: > 100 µM
BT-549 breast
  GI50: 1.21 µM
  TGI: > 100 µM
SF-295 CNS
  GI50: 1.45 µM
  TGI: > 100 µM
LOX IMVI melanoma
  GI50: 0.654 µM
  TGI: > 100 µM

## CN(CCNc1ccc(C(=N)N)cc1)c1ccc(C(=N)N)cc1
KM12 colon
  GI50: 38.3 µM
  TGI: > 100 µM
NCI-H226 lung
  GI50: 3.81 µM
  TGI: > 100 µM
UO-31 renal
  GI50: 54.8 µM
  TGI: > 100 µM
SF-539 CNS
  GI50: 35.1 µM
  TGI: > 100 µM
UACC-62 melanoma
  GI50: 32.6 µM
  TGI: > 100 µM
MALME-3M melanoma
  GI50: 26.6 µM
  TGI: > 100 µM
K-562 leukemia
  GI50: 27.6 µM
  TGI: > 100 µM
BT-549 breast
  GI50: 13.8 µM
  TGI: 38.4 µM
SF-295 CNS
  GI50: 5.8 µM
  TGI: 60.2 µM
LOX IMVI melanoma
  GI50: > 100 µM
  TGI: > 100 µM

## CN1CCN(C(=O)OCc2nc3c(N4CCOCC4)nc(-c4ccccc4)nc3n2C)CC1
KM12 colon
  GI50: 1.55 µM
  TGI: 3.53 µM
NCI-H226 lung
  GI50: 1.61 µM
  TGI: 3.78 µM
UO-31 renal
  GI50: 0.377 µM
  TGI: 1.8 µM
SF-539 CNS
  GI50: 1.33 µM
  TGI: 2.6 µM
UACC-62 melanoma
  GI50: 1.25 µM
  TGI: 2.52 µM
MALME-3M melanoma
  GI50: 1.44 µM
  TGI: 2.8 µM
K-562 leukemia
  GI50: 0.512 µM
  TGI: 7.41 µM
BT-549 breast
  GI50: 1 µM
  TGI: 2.25 µM
SF-295 CNS
  GI50: 1.58 µM
  TGI: 2.96 µM
LOX IMVI melanoma
  GI50: 0.176 µM
  TGI: 0.443 µM

## CC(=O)N[C@@H](Cc1ccc(OP(=O)(O)O)cc1)C(=O)N[C@H]1CCC(=O)N2CCC[C@@H](C(=O)NCc3cccc4ccccc34)N2C1=O
KM12 colon
  GI50: > 25 µM
  TGI: > 25 µM
NCI-H226 lung
  GI50: > 25 µM
  TGI: > 25 µM
UO-31 renal
  GI50: > 25 µM
  TGI: > 25 µM
SF-539 CNS
  GI50: > 25 µM
  TGI: > 25 µM
UACC-62 melanoma
  GI50: > 25 µM
  TGI: > 25 µM
MALME-3M melanoma
  GI50: > 25 µM
  TGI: > 25 µM
K-562 leukemia
  GI50: > 25 µM
  TGI: > 25 µM
BT-549 breast
  GI50: > 25 µM
  TGI: > 25 µM
SF-295 CNS
  GI50: > 25 µM
  TGI: > 25 µM
LOX IMVI melanoma
  GI50: > 25 µM
  TGI: > 25 µM

## O=C(CSc1nc2ccc([N+](=O)[O-])cc2[nH]1)Nc1ccc([N+](=O)[O-])cc1
KM12 colon
  GI50: 2.65 µM
  TGI: 12.9 µM
NCI-H226 lung
  GI50: 2 µM
  TGI: 7.88 µM
UO-31 renal
  GI50: 1.4 µM
  TGI: 8.18 µM
SF-539 CNS
  GI50: 2.96 µM
  TGI: 11.9 µM
UACC-62 melanoma
  GI50: 1.36 µM
  TGI: 7.52 µM
MALME-3M melanoma
  GI50: 1.88 µM
  TGI: 8.1 µM
K-562 leukemia
  GI50: 2.49 µM
  TGI: > 100 µM
BT-549 breast
  GI50: 2.34 µM
  TGI: 14.3 µM
SF-295 CNS
  GI50: 2.03 µM
  TGI: 6.43 µM
LOX IMVI melanoma
  GI50: 2.75 µM
  TGI: 12.2 µM

## CC(C)c1ccc2c(c1)CCC1C(C)(CN)CCCC21C (stereo unspecified)
KM12 colon
  TGI: 3.34 µM
NCI-H226 lung
  TGI: 3.4 µM
UO-31 renal
  TGI: 2.66 µM
SF-539 CNS
  TGI: 3.36 µM
UACC-62 melanoma
  TGI: 3.14 µM
MALME-3M melanoma
  TGI: 2.8 µM
K-562 leukemia
  TGI: 3.01 µM
BT-549 breast
  TGI: 3.43 µM
SF-295 CNS
  TGI: 3.34 µM
LOX IMVI melanoma
  TGI: 2.99 µM

## Cc1cc(C)c2c(=O)cc(-c3ccc(F)cc3)[nH]c2n1
KM12 colon
  TGI: 49.9 µM
NCI-H226 lung
  TGI: > 100 µM
UO-31 renal
  TGI: 92.4 µM
SF-539 CNS
  TGI: > 100 µM
UACC-62 melanoma
  TGI: > 100 µM
MALME-3M melanoma
  TGI: > 100 µM
K-562 leukemia
  TGI: > 100 µM
BT-549 breast
  TGI: > 100 µM
SF-295 CNS
  GI50: 50.1 µM
  TGI: > 100 µM
LOX IMVI melanoma
  TGI: > 100 µM

## CSc1nc(SC)c2cnn(-c3ccnc4cc(Cl)ccc34)c2n1
KM12 colon
  GI50: > 100 µM
  TGI: > 100 µM
NCI-H226 lung
  GI50: 85.4 µM
  TGI: > 100 µM
UO-31 renal
  GI50: > 100 µM
  TGI: > 100 µM
SF-539 CNS
  GI50: 29.1 µM
  TGI: > 62.4 µM
UACC-62 melanoma
  GI50: 33.9 µM
  TGI: > 100 µM
MALME-3M melanoma
  GI50: 32.9 µM
  TGI: > 100 µM
K-562 leukemia
  GI50: > 61 µM
  TGI: > 100 µM
BT-549 breast
  GI50: 43.3 µM
  TGI: > 87.7 µM
SF-295 CNS
  GI50: 5.46 µM
  TGI: > 100 µM
LOX IMVI melanoma
  GI50: > 59 µM
  TGI: > 100 µM

## Clc1ccc(Nc2ncnc3ccccc23)cc1
KM12 colon
  GI50: 47.7 µM
  TGI: > 100 µM
NCI-H226 lung
  GI50: 57.2 µM
  TGI: > 100 µM
UO-31 renal
  GI50: 61 µM
  TGI: > 100 µM
SF-539 CNS
  GI50: > 100 µM
  TGI: > 100 µM
UACC-62 melanoma
  GI50: 78 µM
  TGI: > 100 µM
MALME-3M melanoma
  GI50: 33.9 µM
  TGI: > 100 µM
K-562 leukemia
  GI50: 28 µM
  TGI: > 100 µM
BT-549 breast
  GI50: 72.8 µM
  TGI: > 100 µM
SF-295 CNS
  GI50: 37.9 µM
  TGI: > 100 µM
LOX IMVI melanoma
  GI50: 46.8 µM
  TGI: > 100 µM
